# Data as given in patent publication US20100160445A1, “Synergistic Mixtures of OPP and DGH” (priority 2002, published 2010).
# Key:
# [1] = system: mixed inoculum of bacteria; experiment: MIC and synergy (K) in nutrient broth, microtiter plates; assay type: cell-based
# Method: Stock solutions of each product were prepared in sterile distilled water. Synergism was measured by the method first described by F. C. Kull, P. C. Eisman, H. D. Sylwestrowicz and R. L. Mayer in Applied Microbiology, 9, 538-41 ([…]). This manner of determining synergism has been widely used and is industrially acceptable. It is believed that the specified method is sufficient in explaining the process. However for a further description, reference can be made to U.S. Pat. No. 3,231,509 and its file history, where this type of data was considered acceptable.
# • 1. Incubator capable of maintaining a variable temperature range (25-45 C) • 2. Samples of each biocide or test compound to be examined • 3. Microtiter plates—96 well with lid, sterile. • 4. 8-12 channel micropipetting device capable of pipetting 0-250 ul volumes • 5. Micropipette tips capable of holding up to 250 ul volumes • 6. Sterile microbiological culture broth. Trypticase Soy Broth (TSB) or Nutrient Broth (NB) is recommended for bacteria and Sabouraud Maltose Broth (SMB) or Sabouraud Dextrose Broth (SDB) is recommended for yeasts and molds. In the case of this particular study the microbiological culture medium was Nutrient Broth at pH 7.0, 8.0 and 9.0. • 7. Pure cultures of microorganisms of choice grown on appropriate agar medium • 8. Sterile distilled water • 9. 100 mL volumetric flasks (one for each biocide to be tested) • 10. Sterile 10 mL tubes of Phosphate buffer (Butterfield's buffer pH 7.2+/−0.2). Contains purified water, monobasic potassium phosphate and sodium hydroxide for pH adjustment. • 11. Sterile cotton swabs • 12. 0.5 MacFarland Turbidity Standard
# The day before testing, perform a streak plate of each organism to be tested on an appropriate agar medium (Trypticase Soy Agar). Organisms tested in this study were: Wild strain bacteria isolated from previously contaminated industrial systems and which were identified as: Pseudomonas sp., Escherchia coli , Enterobacter sp., Alcaligenes sp. and Alcaligenes faecalis. On the day of the test, use a sterile cotton swab to harvest some of the growth. Place swab into a tube containing 10 mL sterile phosphate buffer. Compare and adjust the turbidity of the organisms in the tube to 1×10^8 cfu/mL using a 0.5 MacFarland Turbidity Standard. Dilute the 10 mL tube into 90 mL of sterile 2× nutrient broth at pH 7.0, 8.0 and 9.0.
# 1. Design the layout of the microtiter plates based on the number of organisms to test and the number of biocides and desired concentrations to test. A separate microtiter plate is required for testing each biocide alone, in addition to the combination microtiter plate. 2. Prepare a working stock solution of each biocide to be tested. For the combination microtiter plate, the working stock solution of Biocide A will be 8× the concentration desired in the first well of the combination microtiter plate. The working stock solution of Biocide B will be 4× the concentration desired in the first well of the combination microtiter plate. For the alone microtiter plates, the working stock solutions of Biocide A and Biocide B will both be 4× the concentration desired in the first well of the single biocide microtiter plates.
# Dodecylguanidine hydrochloride: (For combination plates) A solution of this product which is 35% active, was made as follows: […]=8000 ppm active=8000/0.35=22,857 ppm, 2.28 g into 100 mL sterile diH2O. Levels to test are: 1000 ppm, 500 ppm, 250 ppm, 125 ppm, 62.5 ppm, 31.2 ppm, 15.6 ppm, 7.8 ppm, 3.9 ppm, 1.95 ppm
# Ortho-PhenylPhenol: (For combination plates) Make a solution of this product which is 99% active, 4×125=500 ppm active=500/0.99=505 ppm, 0.05 g into 100 mL MeOH and sterile diH2O. Level to test is 125 ppm.
# 3. Place 50 ul of sterile distilled water in all of the rows in columns 1 through 10, and 100 ul of sterile distilled water in all of the rows in columns 11 and 12 of the 96 well combination microtiter plate. […]
# [2] = system: wild strain bacteria isolated from previously contaminated systems; experiment: In-Can Preservation Test of paint samples; assay type: cell-based; settings: for Effective Preservative (ppm): two inoculation challenge; for Microbial growth, 1st Inoculation, 1st sub-column: key: 4 = Heavy Microbial Growth; 3 = Moderate Microbial Growth; 2 = Slight Microbial Growth; 1 = Trace Microbial Growth; 0 = No Microbial Growth; for Microbial growth, 1st Inoculation, 2nd sub-column: key: 4 = Heavy Microbial Growth; 3 = Moderate Microbial Growth; 2 = Slight Microbial Growth; 1 = Trace Microbial Growth; 0 = No Microbial Growth; for Microbial growth, 2nd Inoculation, 1st sub-column: key: 4 = Heavy Microbial Growth; 3 = Moderate Microbial Growth; 2 = Slight Microbial Growth; 1 = Trace Microbial Growth; 0 = No Microbial Growth; for Microbial growth, 2nd Inoculation, 2nd sub-column: key: 4 = Heavy Microbial Growth; 3 = Moderate Microbial Growth; 2 = Slight Microbial Growth; 1 = Trace Microbial Growth; 0 = No Microbial Growth
# Method: Preservation Testing was performed on the three paint samples: Acrylic Flat, Acrylic and Vinyl Acrylic. Each sample was treated with various levels OPP, DGH individually and a mixture of OPP and DGH. All samples were then inoculated with wild strain bacteria isolated from previously contaminated systems. Following the initial inoculation, the samples were reinoculated on day 7. This testing scenario best simulates what happens in a “real world” situation. […]
# [3] = Table 2 paint (Acrylic Flat / Vinyl Acrylic Flat), 1000 ppm
# [4] = Table 2 paint (Acrylic Flat / Vinyl Acrylic Flat), 1500 ppm
# [5] = Table 2 paint (Acrylic Flat / Vinyl Acrylic Flat), 2000 ppm
# [6] = Table 2 paint (Acrylic Flat / Vinyl Acrylic Flat), 2500 ppm
# [7] = Table 2 paint (Acrylic Flat / Vinyl Acrylic Flat), 3000 ppm
# [8] = Table 2 paint (Acrylic Flat / Vinyl Acrylic Flat), 3500 ppm
# [9] = Table 2 paint (Acrylic Flat / Vinyl Acrylic Flat), 4000 ppm
# [10] = Table 3 paint (Vinyl Acrylic Flat / Acrylic Flat), 1000 ppm
# [11] = Table 3 paint (Vinyl Acrylic Flat / Acrylic Flat), 1500 ppm
# [12] = Table 3 paint (Vinyl Acrylic Flat / Acrylic Flat), 2000 ppm
# [13] = Table 3 paint (Vinyl Acrylic Flat / Acrylic Flat), 2500 ppm
# [14] = Table 3 paint (Vinyl Acrylic Flat / Acrylic Flat), 3000 ppm
# [15] = Table 3 paint (Vinyl Acrylic Flat / Acrylic Flat), 3500 ppm
# [16] = Table 3 paint (Vinyl Acrylic Flat / Acrylic Flat), 4000 ppm
smiles,measurement,setting,value
"Oc1ccccc1-c1ccccc1 [OPP, Ortho-PhenylPhenol]",MIC,"[1]; pH 7, read-out: MIC, biocide alone",> 1000 µg/mL
same,Synergy Index,"[1]; pH 8.0, 1000 ppm NaOPP alone (0:100)",1.00
same,Synergy Index,"[1]; pH 9.0, 500 ppm NaOPP alone (0:100)",1.00
same,Effective Preservative (ppm),[2]; Acrylic Flat paint,>4000 ppm
same,"Microbial growth, 1st Inoculation, 1st sub-column","[2]; Acrylic paint, 1000 ppm",3
same,"Microbial growth, 1st Inoculation, 2nd sub-column","[2]; Acrylic paint, 1000 ppm",3
same,"Microbial growth, 2nd Inoculation, 1st sub-column","[2]; Acrylic paint, 1000 ppm",3
same,"Microbial growth, 2nd Inoculation, 2nd sub-column","[2]; Acrylic paint, 1000 ppm",3
same,"Microbial growth, 1st Inoculation, 1st sub-column","[2]; Acrylic paint, 1500 ppm",3
same,"Microbial growth, 1st Inoculation, 2nd sub-column","[2]; Acrylic paint, 1500 ppm",3
same,"Microbial growth, 2nd Inoculation, 1st sub-column","[2]; Acrylic paint, 1500 ppm",3
same,"Microbial growth, 2nd Inoculation, 2nd sub-column","[2]; Acrylic paint, 1500 ppm",3
same,"Microbial growth, 1st Inoculation, 1st sub-column","[2]; Acrylic paint, 2000 ppm",3
same,"Microbial growth, 1st Inoculation, 2nd sub-column","[2]; Acrylic paint, 2000 ppm",3
same,"Microbial growth, 2nd Inoculation, 1st sub-column","[2]; Acrylic paint, 2000 ppm",3
same,"Microbial growth, 2nd Inoculation, 2nd sub-column","[2]; Acrylic paint, 2000 ppm",3
same,"Microbial growth, 1st Inoculation, 1st sub-column","[2]; Acrylic paint, 2500 ppm",3
same,"Microbial growth, 1st Inoculation, 2nd sub-column","[2]; Acrylic paint, 2500 ppm",3
same,"Microbial growth, 2nd Inoculation, 1st sub-column","[2]; Acrylic paint, 2500 ppm",3
same,"Microbial growth, 2nd Inoculation, 2nd sub-column","[2]; Acrylic paint, 2500 ppm",3
same,"Microbial growth, 1st Inoculation, 1st sub-column","[2]; Acrylic paint, 3000 ppm",3
same,"Microbial growth, 1st Inoculation, 2nd sub-column","[2]; Acrylic paint, 3000 ppm",3
same,"Microbial growth, 2nd Inoculation, 1st sub-column","[2]; Acrylic paint, 3000 ppm",3
same,"Microbial growth, 2nd Inoculation, 2nd sub-column","[2]; Acrylic paint, 3000 ppm",3
same,"Microbial growth, 1st Inoculation, 1st sub-column","[2]; Acrylic paint, 3500 ppm",3
same,"Microbial growth, 1st Inoculation, 2nd sub-column","[2]; Acrylic paint, 3500 ppm",3
same,"Microbial growth, 2nd Inoculation, 1st sub-column","[2]; Acrylic paint, 3500 ppm",3
same,"Microbial growth, 2nd Inoculation, 2nd sub-column","[2]; Acrylic paint, 3500 ppm",3
same,"Microbial growth, 1st Inoculation, 1st sub-column","[2]; Acrylic paint, 4000 ppm",3
same,"Microbial growth, 1st Inoculation, 2nd sub-column","[2]; Acrylic paint, 4000 ppm",3
same,"Microbial growth, 2nd Inoculation, 1st sub-column","[2]; Acrylic paint, 4000 ppm",3
same,"Microbial growth, 2nd Inoculation, 2nd sub-column","[2]; Acrylic paint, 4000 ppm",3
same,Effective Preservative (ppm),[2]; Acrylic paint,>4000 ppm
same,"Microbial growth, 1st Inoculation, 1st sub-column",[2]; [3],3
same,"Microbial growth, 1st Inoculation, 2nd sub-column",[2]; [3],3
same,"Microbial growth, 2nd Inoculation, 1st sub-column",[2]; [3],3
same,"Microbial growth, 2nd Inoculation, 2nd sub-column",[2]; [3],3
same,"Microbial growth, 1st Inoculation, 1st sub-column",[2]; [4],3
same,"Microbial growth, 1st Inoculation, 2nd sub-column",[2]; [4],3
same,"Microbial growth, 2nd Inoculation, 1st sub-column",[2]; [4],3
same,"Microbial growth, 2nd Inoculation, 2nd sub-column",[2]; [4],3
same,"Microbial growth, 1st Inoculation, 1st sub-column",[2]; [5],3
same,"Microbial growth, 1st Inoculation, 2nd sub-column",[2]; [5],3
same,"Microbial growth, 2nd Inoculation, 1st sub-column",[2]; [5],3
same,"Microbial growth, 2nd Inoculation, 2nd sub-column",[2]; [5],3
same,"Microbial growth, 1st Inoculation, 1st sub-column",[2]; [6],3
same,"Microbial growth, 1st Inoculation, 2nd sub-column",[2]; [6],3
same,"Microbial growth, 2nd Inoculation, 1st sub-column",[2]; [6],3
same,"Microbial growth, 2nd Inoculation, 2nd sub-column",[2]; [6],3
same,"Microbial growth, 1st Inoculation, 1st sub-column",[2]; [7],3
same,"Microbial growth, 1st Inoculation, 2nd sub-column",[2]; [7],3
same,"Microbial growth, 2nd Inoculation, 1st sub-column",[2]; [7],3
same,"Microbial growth, 2nd Inoculation, 2nd sub-column",[2]; [7],3
same,"Microbial growth, 1st Inoculation, 1st sub-column",[2]; [8],3
same,"Microbial growth, 1st Inoculation, 2nd sub-column",[2]; [8],3
same,"Microbial growth, 2nd Inoculation, 1st sub-column",[2]; [8],3
same,"Microbial growth, 2nd Inoculation, 2nd sub-column",[2]; [8],3
same,"Microbial growth, 1st Inoculation, 1st sub-column",[2]; [9],3
same,"Microbial growth, 1st Inoculation, 2nd sub-column",[2]; [9],3
same,"Microbial growth, 2nd Inoculation, 1st sub-column",[2]; [9],3
same,"Microbial growth, 2nd Inoculation, 2nd sub-column",[2]; [9],3
same,"Microbial growth, 1st Inoculation, 1st sub-column",[2]; [10],2
same,"Microbial growth, 1st Inoculation, 2nd sub-column",[2]; [10],2
same,"Microbial growth, 2nd Inoculation, 1st sub-column",[2]; [10],2
same,"Microbial growth, 2nd Inoculation, 2nd sub-column",[2]; [10],2
same,"Microbial growth, 1st Inoculation, 1st sub-column",[2]; [11],2
same,"Microbial growth, 1st Inoculation, 2nd sub-column",[2]; [11],2
same,"Microbial growth, 2nd Inoculation, 1st sub-column",[2]; [11],2
same,"Microbial growth, 2nd Inoculation, 2nd sub-column",[2]; [11],2
same,"Microbial growth, 1st Inoculation, 1st sub-column",[2]; [12],2
same,"Microbial growth, 1st Inoculation, 2nd sub-column",[2]; [12],2
same,"Microbial growth, 2nd Inoculation, 1st sub-column",[2]; [12],2
same,"Microbial growth, 2nd Inoculation, 2nd sub-column",[2]; [12],2
same,"Microbial growth, 1st Inoculation, 1st sub-column",[2]; [13],2
same,"Microbial growth, 1st Inoculation, 2nd sub-column",[2]; [13],2
same,"Microbial growth, 2nd Inoculation, 1st sub-column",[2]; [13],2
same,"Microbial growth, 2nd Inoculation, 2nd sub-column",[2]; [13],2
same,"Microbial growth, 1st Inoculation, 1st sub-column",[2]; [14],2
same,"Microbial growth, 1st Inoculation, 2nd sub-column",[2]; [14],2
same,"Microbial growth, 2nd Inoculation, 1st sub-column",[2]; [14],2
same,"Microbial growth, 2nd Inoculation, 2nd sub-column",[2]; [14],2
same,"Microbial growth, 1st Inoculation, 1st sub-column",[2]; [15],2
same,"Microbial growth, 1st Inoculation, 2nd sub-column",[2]; [15],1
same,"Microbial growth, 2nd Inoculation, 1st sub-column",[2]; [15],2
same,"Microbial growth, 2nd Inoculation, 2nd sub-column",[2]; [15],1
same,"Microbial growth, 1st Inoculation, 1st sub-column",[2]; [16],2
same,"Microbial growth, 1st Inoculation, 2nd sub-column",[2]; [16],0
same,"Microbial growth, 2nd Inoculation, 1st sub-column",[2]; [16],2
same,"Microbial growth, 2nd Inoculation, 2nd sub-column",[2]; [16],0
same,Effective Preservative (ppm),[2]; Vinyl Acrylic Flat paint,4000 ppm
